Data set [1] can be described thus: Water uptake by GVS (gravimetric vapour sorption). It counts as physicochemical. Conditions: between RH of 0% -80%, as measured by GVS. The protocol: • XRPD data were collected using either a PANalytical CubiX PRO machine or a Philips X-Pert MPD machine. • XRPD—PANalytical CubiX PRO • Data was collected with a PANalytical CubiX PRO machine in θ-θ configuration over the scan range 2° to 40° 2θ with 100-second exposure per 0.02° increment. The X-rays were generated by a copper long-fine focus tube operated at 45 kV and 40 mA. The wavelength of the copper X-rays was 1.5418 Å. The data was collected on zero background holders on which ˜2 mg of the compound was placed. The holder was made from a single crystal of silicon, which had been cut along a non-diffracting plane and then polished on an optically flat finish. […] The X-rays incident upon this surface were negated by Bragg extinction. • DSC thermograms were measured using a TA Q1000 Differential Scanning Calorimeter, with aluminium pans and pierced lids. […] The procedure was carried out under a flow of nitrogen gas (50 ml/min) and the temperature studied from 25 to 300° C. at a constant rate of temperature increase of 10° C. per minute. • GVS profiles were measured using a Dynamic Vapour Sorption DVS-1 instrument. The solid sample ca. 1-5 mg was placed into a glass vessel and the weight of the sample was recorded during a dual cycle step method (40 to 90 to 0 to 90 to 0% relative humidity (RH), in steps of 10% RH).

For data set [2], the target named is T1, rhCRTh2 (Homo sapiens, UniProt Q9Y5Y4).
T1 construct: expressed in transfected cells; host or cells: HEK cells (membrane preparation)
T1 sequence (Q9Y5Y4 1-395): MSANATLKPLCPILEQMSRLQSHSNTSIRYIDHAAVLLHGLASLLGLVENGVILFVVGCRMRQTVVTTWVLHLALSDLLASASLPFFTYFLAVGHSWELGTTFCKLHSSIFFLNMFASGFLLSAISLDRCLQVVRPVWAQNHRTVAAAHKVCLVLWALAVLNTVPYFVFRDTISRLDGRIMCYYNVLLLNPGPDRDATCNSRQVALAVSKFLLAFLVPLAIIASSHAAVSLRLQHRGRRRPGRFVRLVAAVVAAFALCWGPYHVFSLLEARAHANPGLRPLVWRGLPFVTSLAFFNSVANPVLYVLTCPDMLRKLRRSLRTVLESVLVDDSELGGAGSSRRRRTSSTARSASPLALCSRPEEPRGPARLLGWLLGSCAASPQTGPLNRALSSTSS
The experiment in a line: Ligand binding assay ([3H]PGD2, SPA, HEK cell membranes). Conditions: [3H]PGD2 binding to HEK cell membranes containing CRTh2, RT 2 hours.
Experimental: HEK cells expressing rhCRTh2/Gα16 were routinely maintained in DMEM containing 10% Foetal Bovine Serum (HyClone), 1 mg/ml geneticin, 2 mM L-glutamine and 1% non-essential amino acids. For the preparation of membranes, the adherent transfected HEKcells were grown to confluence in two layer tissue culture factories (Fisher, catalogue number TKT-170-[MUT]). Maximal levels of receptor expression were induced by addition of 500 mM sodium butyrate for the last 18 hours of culture. The adherent cells were washed once with phosphate buffered saline (PBS, 50 ml per cell factory) and detached by the addition of 50 ml per cell factory of ice-cold membrane homogenisation buffer [20 mM HEPES (pH 7.4), 01. mM dithiothreitol, 1 mM EDTA, 0.1 mM phenyl methyl sulphonyl fluoride and 100 μg/ml bacitracin]. […] The final pellet was re-suspended in 4 ml of membrane homogenisation buffer per cell factory used and the protein content determined. […] (The optimum coating concentrations were determined for each batch of membranes) The beads were pelleted by centrifugation (800×g for 7 minutes at 4° C.), washed once with assay buffer (50 mM HEPES pH 7.4 containing 5 mM magnesium chloride) and finally re-suspended in assay buffer at a bead concentration of 10 mg/ml. […] The assay plate was incubated at RT for 2 hours and counted on a Wallac Microbeta liquid scintillation counter (1 minute per well).

Data set [3] deals with human hepatocytes. The experiment in a line: Determination of metabolic intrinsic clearance (CLint) using human hepatocytes. It counts as in vitro ADME. The note with it: 1 μM substrate, 37° C., n=3. The protocol: Compound stocks were prepared in dimethyl sulfoxide at 100-fold incubation concentration (100 μM). 10 μl of this 100 μM stock was added to a vial containing 490 μl of hepatocyte suspension buffer (without serum). A vial containing either human hepatocytes at a concentration of 2 million viable cells/ml was pre-incubated for 5 min in a shaking (80 oscillations/min) water bath at 37° C. along with the vial containing the drug/buffer mix.
Reactions were initiated by adding 500 μl of hepatocyte suspension to the 500 μl of drug/buffer mix (giving a final substrate concentration of 1 μM at 1% v/v dimethyl sulfoxide). Aliquots (40 μl) were removed at 5, 15, 30, 45, 60, 75 90 & 120 min and reactions were quenched in 80 μl of ice-cold methanol. Samples were subsequently frozen for 1 h at −20° C. and then centrifuged at 2000 g for 20 min at 4° C. The supernatants were removed and analysed by MS/MS and Clint was estimated from the slope of a natural Log of MS/MS response versus time plot. Using physiological scaling factors to account for hepatocellularity and liver weight in the human (Ito and Houston, 2004) hepatic blood clearance was predicted (Clh) using the method outlined by Riley et al., 2005. Typical acid drugs showing an intrinsic clearance value in this assay of <2 μl/min/e^6 cells show robust half lives in man consistent with a once-daily dose intervals. […]

For three compounds, water uptake, pIC50 and Clint results are on record in patent US8507544B2, “Bi-aryl amide compounds as CRTh2 receptor modulators” (Astrazeneca AB, priority 2007, dated 2013).

Each structure is given as a SMILES string. Structures can show the parent of a compound that is named as a salt.

On to `C[C@H](Oc1ccc(F)cc1-c1ccc(C(=O)N2CCCC2(C)C)c(Cl)c1)C(=O)O` [Example 4, (2S)-2-({3′-chloro-4′-[(2,2-dimethylpyrrolidin-1-yl)carbonyl]-5-fluorobiphenyl-2-yl}oxy)propanoic acid crystaline free acid], for which, in data set [1] (listed as example 4 polymorph A), the water uptake is 0.7%.
Compound `C[C@H](Oc1ccc(F)cc1-c1ccc(C(=O)N2CCCC2(C)C)c(Cl)c1)C(=O)O` [Example 1, (2S)-2-({3′-chloro-4′-[(2,2-dimethylpyrrolidin-1-yl)carbonyl]-5-fluorobiphenyl-2-yl}oxy)propanoic acid] showed a pIC50 in data set [2] of 8.4. For the same compound, in data set [3], the Clint is less than 1 μl/min/e^6.
Consider `C[C@H](Oc1ccc(F)cc1-c1ccc(C(=O)N2CCCC2(C)C)c(Cl)c1)C(=O)O` [Example 2, (2S)-2-({3′-chloro-4′-[(2,2-dimethylpyrrolidin-1-yl)carbonyl]-5-fluorobiphenyl-2-yl}oxy)propanoic acid 2-methylpropan-2-amine salt], for which the water uptake in data set [1] (listed as example 2 polymorph A) is reported as 0.6%.

Broadly, the pIC50 is −log10 of the IC50, conventionally taken in molar units. A high value points to a small IC50.
